Data as given in US5961482A, “Iontotherapeutic device and process and iontotherapeutic unit dose” (Rutgers, The State University Of New Jersey, priority 1996, dated 1999).
Values joined by “and” are separate entries in the source; they are usually repeats but may differ in a detail not shown here. Identical values can stand only once.

Tests used:
[1] = In vitro skin permeation of vasopressin, Valia-Chien cell, H^3-vasopressin scintillation counting; assay type: in vitro ADME, hairless rat; conditions: for Enhancement factor: vs passive diffusion (1.32 ng/cm^2 /hr)
Protocol: (§1) An aqueous buffer solution of vasopressin (50 mcg/ml containing 1.7 mcCi/ml H^3 -vasopressin) is prepared in citrate-phosphate buffer at pH 5.0. An aliquot of 3.5 ml of this vasopressin solution is filled into the refillable dosage unit having a microporous membrane as the drug-releasingsurface. The dosage unit is then assembled as a part of the pharmaceutical reservoir electrode of the iontotherapeutic device and membrane surface thereof is applied to the stratum corneum side of hairless rat skin mounted in the Valia-Chien skin permeation cell at 37° C. Samples are withdrawn at regular intervals and radioactivity is measured by scintillation counter to determine the amount of vasopressin which has been transdermally absorbed.
as §1, with “aqueous buffered” for “aqueous buffer”, “pH 7.4 with varying ionic strengths.” for “pH 5.0.”, “the drug-releasing surface.” for “the drug-releasingsurface.”, “regular time” for “regular”
as §1, with “aqueous buffered” for “aqueous buffer”, “pH 5.0 at ionic strength of 0.064.” for “pH 5.0.”, “the drug-releasing surface.” for “the drug-releasingsurface.”, “regular time” for “regular”

[2] = test system: urine osmolarity in anesthetized rabbits; assay: Urine osmolarity / urine output in anesthetized rabbits; assay type: in vivo
Protocol: An aqueous buffer solution of vasopressin (40 IU/ml) is prepared in citrate-phosphate buffer at pH 5.0. Vasopressin is an anti-diuretic pharmaceutical, which is used by patients which have an excessive urine output. Vasopressin caused a reduction of urine output and an increase in ion content, such as sodium ion content. Ion content in the urine is determined by using osmolarity measurement. An aliquot of 3.5 ml of this vasopressin solution is filled into the refillable dosage unit having a microporous membrane as the drug-releasing surface. The dosage unit is then assembled as a part of the pharmaceutical reservoir electrode of the iontotherapeutic device and membrane surface thereof is applied to the abdominal skin of 2 groups of anesthetized rabbits. Blood samples are withdrawn and urine samples are collected at regular time intervals and urine osmolarity is measured by osmometer. The increases in osmolarity from the basal level are the pharmacodynamic responses to the vasopressin transdermally absorbed.

[3] = In vitro skin permeation of vasopressin, Valia-Chien cell, H^3-vasopressin scintillation counting; assay type: in vitro ADME, hairless rat; conditions: pH 7.4
[4] = TPIS 0.3 mA, 16 KHz, on/off 1/1, 60 min, pH 5.0, ionic strength 0.064

NC(=O)CC[C@@H]1NC(=O)[C@H](Cc2ccccc2)NC(=O)[C@H](Cc2ccc(O)cc2)NC(=O)[C@@H](N)CSSC[C@@H](C(=O)N2CCC[C@H]2C(=O)N[C@@H](CCCN=C(N)N)C(=O)NCC(N)=O)NC(=O)[C@H](CC(N)=O)NC1=O [Vasopressin, vasopressin]
Skin Permeation Rate ([1]; NO TPIS, 0.0 mA (passive diffusion), pH 5.0, X ± SD): 0.94±0.62 ng/cm^2 hr and 0.94 (±0.62) ng/cm^2 hr
Skin Permeation Lag Time ([1]; NO TPIS, 0.0 mA, pH 5.0, X ± SD): 9.12 (±1.06) hours
time after TPIS treatment for skin permeability to return to the rate before treatment ([1]; TPIS 0.3 mA, 16 KHz, 60 min, pH 5.0, ionic strength 0.064): less than 2 hours
Skin Permeation Rate [1, 4]: 757.3 (±53.2) ng/cm^2 /hr
duration of time lag [1, 4]: 0.40 (±0.06) hours
Skin Permeation Rate ([1]; TPIS 0.5 mA, 2 KHz, on/off 1/1, pH 7.4, ionic strength 0.122, ± SD): 244.6 (±26.3) ng/cm^2 /hr
Skin Permeation Rate ([1]; TPIS 0.5 mA, 2 KHz, on/off 1/1, pH 7.4, ionic strength 0.488, ± SD): 65.9 (±13.1) ng/cm^2 /hr
Skin Permeation Lag Time ([1]; With TPIS, activation phase, 0.5 mA, 2 KHz, on/off 1/1, 10 min per 40 min, pH 5.0): < 0.5 h
Skin Permeation Rate ([1]; With TPIS, activation phase, 0.5 mA, 2 KHz, on/off 1/1, 10 min per 40 min, pH 5.0, X ± SD): 116.2 (±10.7) ng/cm^2 hr
Skin Permeation Lag Time ([1]; With TPIS, activation phase, 1.0 mA, 2 KHz, on/off 1/1, 10 min per 40 min, pH 5.0): < 0.5 h
Skin Permeation Rate ([1]; With TPIS, activation phase, 1.0 mA, 2 KHz, on/off 1/1, 10 min per 40 min, pH 5.0, X ± SD): 178.0 (±25) ng/cm^2 hr
duration of time lag ([1]; passive diffusion, pH 5.0, ionic strength 0.064): 9 h
Skin Permeation Rate ([1]; passive diffusion, pH 5.0, ionic strength 0.064, 30 hours): 0.98±0.26 ng/cm^2 /hr
Skin Permeation Rate ([1]; post-activation phase (0.0 mA) after 0.5 mA TPIS, pH 5.0, X ± SD): 0.7 (±0.4) ng/cm^2 hr
Skin Permeation Rate ([1]; post-activation phase (0.0 mA) after 1.0 mA TPIS, pH 5.0, X ± SD): 5.3 (±0.5) ng/cm^2 hr
Enhancement factor ([1]; TPIS 0.5 mA, ionic strength 0.061): 472.8 (±59.0)
Enhancement factor ([1]; TPIS 0.5 mA, ionic strength 0.122): 185.3 (±19.9)
Enhancement factor ([1]; TPIS 0.5 mA, ionic strength 0.244): 76.8 (±6.9)
Enhancement factor ([1]; TPIS 0.5 mA, ionic strength 0.488): 49.9 (±18.0)
urine osmolarity, TPIS vs TIDD ([2]; TPIS 0.22 mA/cm^2, 2 KHz, on/off 1/1, square, 40 min, 40 IU/ml pH 5.0): increases from the basal levels more rapidly and substantially
urine output, TPIS vs TIDD ([2]; TPIS, vasopressin solution pH 5.0): more effective in reducing urine output than TIDD
Skin Permeation Rate ([3]; TPIS 0.5 mA, 2 KHz, on/off 1/1, ionic strength 0.061, ± SD): 632.6 (±65.0) ng/cm^2 /hr
Skin Permeation Rate ([3]; TPIS 0.5 mA, 2 KHz, on/off 1/1, ionic strength 0.244, ± SD): 101.4 (±9.1) ng/cm^2 /hr
Skin Permeation Rate ([3]; passive diffusion, 30 hours): 1.32±0.38 ng/cm^2 /hr
